Laboratory results published in patent US10760110B2, “Antibiotic testing and screening system” (priority 2017, dated 2020).
≈ marks a conversion by molar mass, not a printed value. Read-outs that look alike come from different tables or passages of the source.

Tests used:
[1] = tested on: K. pneumoniae NVT1001 and its ΔompK35/36 and/or ΔramR mutants; assay: Etest MIC, OmpK35/36 loss and AcrAB-TolC overexpression (ΔramR) strains (Table 6); format: cell-based, Klebsiella pneumoniae; conditions: Klebsiella pneumoniae
Procedure, shortened: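 Ceftazidime and cefotaxime were tested by CLSI broth microdilution on the blaOXA-48 pACYC177 transformant of NVT1001, using CLSI 2017 breakpoints. Parent, porin-deleted (ΔompK35/36) and ΔramR strains were tested by Etest, with values between two-fold dilutions rounded up.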

[2] = tested on: K. pneumoniae NVT1001 strains with aminoglycoside resistance plasmids; assay: Etest MIC of aminoglycosides, aminoglycoside-modifying enzyme or 16S rRNA methylase (Table 13); format: cell-based, Klebsiella pneumoniae; conditions: strains with different aminoglycoside-modifying enzymes
Method: (§1) DNA fragments of the resistance genes along with their flanking regions were amplified from clinical plasmids via PCR with specific primer pairs. The resulting PCR fragments were digested and then cloned into the plasmid pACYC177 or pACYC184. The resulting plasmids were then transformed into K. pneumoniae strain NVT1001 via electroporation. The recombinant bacteria were plated onto LB agar plates containing kanamycin (50 mg/L) or chloramphenicol (50 mg/L), and the presence of the cloned gene was confirmed via PCR and DNA sequencing.
(§2) The MICs of antibiotics were determined using the Etest (Biodisk AB, Sweden) according to the manufacturer's instructions. The MICs from the Etest, which fall between standard two-fold dilutions, were rounded up to the next highest two-fold value. The MICs of ceftazidime and cefotaxime against K. pneumoniae NVT1001 harbouring the pACYC177 plasmid with blaOXA-48 were further determined using a broth microdilution test according to the recommendations of the CLSI,^25 and the results were interpreted according to the breakpoints established by the CLSI in 2017.^25 Meanwhile, due to the lack of CLSI breakpoints in 2016 and 2017, the results for cephalothin were interpreted according to the breakpoints established by the CLSI in 2015,^26 and the results for moxifloxacin were interpreted according to the breakpoints established by the EUCAST in 2017.^27

[3] = tested on: A. baumannii KW1 strains with aminoglycoside resistance plasmids; assay: Etest MIC of aminoglycosides, aminoglycoside-modifying enzyme or 16S rRNA methylase (Table 19); format: cell-based, Acinetobacter baumannii; conditions: production of aminoglycoside-modifying enzymes
Method: (§3) DNA fragments of the resistance genes along with their flanking regions were amplified from clinical plasmids via PCR with specific primer pairs. The resulting PCR fragments were digested and then cloned into the plasmid pYMAb5 or pYMAb5Tc. The resulting plasmids were then transformed into A. baumannii KW1 via electroporation.
as §2

[4] = tested on: K. pneumoniae NVT1001 ΔramRΔompK35/36 mutant and its revertants; assay: Etest MIC, ΔramRΔompK35/36 mutant and its revertants (Table 7); format: cell-based; conditions: Klebsiella pneumoniae
Text: The allelic-exchange method was used to restore the wild-type gene in the K. pneumoniae NVT1001 mutants with constructed chromosome-mediated resistance mechanisms, as described by Tsai et al.^19 Briefly, a DNA fragment of the entire wild-type gene sequence along with flanking regions was amplified from K. pneumoniae NVT1001 using PCR with specific primers. The resulting PCR fragment was digested and then cloned into pUT-KB. For homologous recombination, this plasmid was transformed into E. coli S17-1 λpir^23 via electroporation and mobilized into the K. pneumoniae NVT1001 mutant via conjugation. […] After incubation in 20 mL BHI broth for 6 hours at 37° C. in the absence of kanamycin, the fully grown cultures were spread onto LB agar plates supplemented with 10% sucrose. After the double crossover occurred, the sucrose-resistant and kanamycin-susceptible colonies were selected, and the restoration of the wild-type gene was confirmed via DNA sequencing.
as §2

[5] = tested on: K. pneumoniae NVT1001 and ΔramR strains with tet resistance gene plasmids; assay: Etest MIC of tetracyclines, AcrAB-TolC overexpression (ΔramR) and/or tet resistance gene (Table 14); format: cell-based, Klebsiella pneumoniae; conditions: Klebsiella pneumoniae
Method: as §1, §2

[6] = tested on: A. baumannii KW1 strains with tet resistance gene plasmids; assay: Etest MIC of tetracyclines, tet resistance gene (Table 20); format: cell-based, Acinetobacter baumannii; conditions: for MIC: Acinetobacter baumannii; for increase in the MIC: production of Tet(A), Tet(B) or Tet(C)
Method: as §3, §2

[7] = ΔramRΔ35/36, ΔramRΔompK35/36 mutant
[8] = ΔramRΔompK35/36::ompK35/36 revertant
[9] = ΔramRΔompK35/36::ompK35 revertant
[10] = ΔramRΔompK35/36::ompK36 revertant
[11] = ΔramRΔompK35/36::ramR revertant
[12] = ΔramRΔompK35/36::ramR::ompK35/36 revertant
[13] = ΔramRΔompK35/36::ramR::ompK35 revertant
[14] = ΔramRΔompK35/36::ramR::ompK36 revertant
[15] = NVT1001, Tet(A) on pACYC177, read-out: MIC
[16] = NVT1001, Tet(B) on pACYC177, read-out: MIC
[17] = NVT1001, Tet(C) on pACYC177, read-out: MIC
[18] = NVT1001, Tet(D) on pACYC177, read-out: MIC
[19] = NVT1001, Tet(M) on pACYC177, read-out: MIC
[20] = NVT1001, no supplemental plasmid, read-out: MIC

SMILES | MIC ([1]; WT, NVT1001, read-out: MIC) | MIC ([1]; Δ35, ΔompK35 mutant) | MIC ([1]; Δ35/36, ΔompK35/36 mutant) | MIC ([1]; Δ36, ΔompK36 mutant) | MIC ([1]; ΔramR mutant) | MIC ([1]; ΔramRΔ35, ΔramRΔompK35 mutant) | MIC [1, 7] | MIC ([1]; ΔramRΔ36, ΔramRΔompK36 mutant) | MIC [4, 8] | MIC [4, 9] | MIC [4, 10] | MIC [4, 11] | MIC [4, 12] | MIC [4, 13] | MIC [4, 14] | MIC ([4]; ΔramRΔompK35/36 mutant) | MIC [5, 15] | MIC [5, 16] | MIC [5, 17] | MIC [5, 18] | also measured
NCC[C@H](O)C(=O)N[C@@H]1C[C@H](N)[C@@H](O[C@H]2O[C@H](CN)[C@@H](O)[C@H](O)[C@H]2O)[C@H](O)[C@H]1O[C@H]1O[C@H](CO)[C@@H](O)[C@H](N)[C@H]1O [Amikacin] | 2 µg/mL (≈ 3.42 µM) | 2 µg/mL (≈ 3.42 µM) | 2 µg/mL (≈ 3.42 µM) | 2 µg/mL (≈ 3.42 µM) | 2 µg/mL (≈ 3.42 µM) | 2 µg/mL (≈ 3.42 µM) | 2 µg/mL (≈ 3.42 µM) | 2 µg/mL (≈ 3.42 µM) | – | – | – | – | – | – | – | – | – | – | – | – | susceptibility category [2]: susceptible; effects on the MIC [3]: no increase effects
C[C@H]1c2cccc(O)c2C(=O)C2=C(O)[C@]3(O)C(=O)C(C(N)=O)=C(O)[C@@H](N(C)C)[C@@H]3[C@@H](O)[C@@H]21 [Doxycycline, doxycycline] | 4 µg/mL (≈ 9 µM) | 4 µg/mL (≈ 9 µM) | 4 µg/mL (≈ 9 µM) | 4 µg/mL (≈ 9 µM) | 64 µg/mL (≈ 144 µM) | 64 µg/mL (≈ 144 µM) | 128 µg/mL (≈ 288 µM) | 64 µg/mL (≈ 144 µM) | 64 µg/mL | 64 µg/mL | 64 µg/mL | 4 µg/mL | 4 µg/mL | 4 µg/mL | 4 µg/mL | 128 µg/mL | > 256 µg/mL | > 256 µg/mL | 16 µg/mL | 128 µg/mL | MIC [5, 19]: 32 µg/mL; MIC [5, 20]: 4 µg/mL; MIC ([5]; ΔramR, Tet(A) on pACYC177): > 256 µg/mL; MIC ([5]; ΔramR, Tet(B) on pACYC177): > 256 µg/mL; MIC ([5]; ΔramR, Tet(C) on pACYC177): 128 µg/mL; MIC ([5]; ΔramR, Tet(D) on pACYC177): 256 µg/mL; MIC ([5]; ΔramR, Tet(M) on pACYC177): 128 µg/mL; MIC ([5]; ΔramR, no supplemental plasmid): 64 µg/mL; MIC ([6]; KW1, Tet(A) on pYMAb5): 12 µg/mL; MIC ([6]; KW1, Tet(B) on pYMAb5): 32 µg/mL; MIC ([6]; KW1, Tet(M) on pYMAb5): 192 µg/mL; MIC ([6]; KW1, no supplemental plasmid): 0.75 µg/mL; MIC ([6]; KW1 with shuttle vector pYMAb5): 0.75 µg/mL; increase in the MIC [6]: 4 fold
CN(C)c1ccc(O)c2c1C[C@H]1C[C@H]3[C@H](N(C)C)C(O)=C(C(N)=O)C(=O)[C@@]3(O)C(O)=C1C2=O [Minocycline] | 4 µg/mL (≈ 8.74 µM) | 4 µg/mL (≈ 8.74 µM) | 4 µg/mL (≈ 8.74 µM) | 4 µg/mL (≈ 8.74 µM) | 64 µg/mL (≈ 140 µM) | 128 µg/mL (≈ 280 µM) | 128 µg/mL (≈ 280 µM) | 128 µg/mL (≈ 280 µM) | 128 µg/mL | 128 µg/mL | 128 µg/mL | 4 µg/mL | 4 µg/mL | 4 µg/mL | 4 µg/mL | 128 µg/mL | 32 µg/mL | 32 µg/mL | 4 µg/mL | 128 µg/mL | MIC [5, 19]: 32 µg/mL; MIC [5, 20]: 4 µg/mL; MIC ([5]; ΔramR, Tet(A) on pACYC177): > 256 µg/mL; MIC ([5]; ΔramR, Tet(B) on pACYC177): > 256 µg/mL; MIC ([5]; ΔramR, Tet(C) on pACYC177): 64 µg/mL; MIC ([5]; ΔramR, Tet(D) on pACYC177): > 256 µg/mL; MIC ([5]; ΔramR, Tet(M) on pACYC177): > 256 µg/mL; MIC ([5]; ΔramR, no supplemental plasmid): 64 µg/mL; MIC ([6]; KW1, Tet(A) on pYMAb5): 1.5 µg/mL; MIC ([6]; KW1, Tet(B) on pYMAb5): 1.5 µg/mL; MIC ([6]; KW1, Tet(M) on pYMAb5): 2 µg/mL; MIC ([6]; KW1, no supplemental plasmid): 0.38 µg/mL; MIC ([6]; KW1 with shuttle vector pYMAb5): 0.25 µg/mL; increase in the MIC [6]: 4 fold
